Columns and labels:
A2780 cells = experiment: A2780 cell anti-proliferation assay; type: cell-based; details: Homo sapiens, A2780, 144 h, 6 days, Cell Titer-Glo
Protocol: A2780 (ECACC) cells were cultured in RPMI-1640 complete medium (Gibco, A1049101) containing 10% fetal bovine serum (Gibco, 10099-141C), 100 U penicillin and 100 μg/mL streptomycin (Gibco, 15140-122). The Promega kit Cell Titer-Glo (Promega: G7572) was used in this method for test.
A2780 cells were cultured in T75 cell flasks (Corning, 430641) and the cells were placed in a 37° C., 5% CO2 incubator. Cells were passaged when reaching a cell density of 70%-80%, once every five days. To perform the experiment, the test compounds were dissolved in DMSO to prepare a 10 mM stock solution, and the test compounds were added to the 384-well cell test plate (Corning, 3765) at the predetermined concentration (19.5 nM-[…]) using ECHO. A2780 cells were digested and 4000 cells (60 μL medium) were seeded per well in the test plate. The 384-well plate was then centrifuged at 500 rpm for 1 minute, and then placed in a 37° C., 5% CO2 incubator for 6 days of cultivation. Six days later, the cell culture plate was equilibrated for 10 minutes at room temperature, 25 μL of Cell Titer-Glo was added to each well, and the mixture was shaken and mixed well and let stand for 5 minutes. The luminescence values for samples in various wells were read using a microplate reader in Luminescence mode.
The percentage of inhibition of A2780 cell proliferation by the test compound at each concentration was calculated by comparing with the values of the control group (0.2% DMSO). The IC50 values of the compounds were obtained by concentration-inhibition rate nonlinear regression analysis of the test compounds using GraphPad Prism 9.

KIF18A = KIF18A (Homo sapiens (Human), UniProt Q8NI77); experiment: KIF18A ATPase activity under tubulin stimulation (ADP-Glo assay); type: biochemical; details: KIF18A 30 nM, ATP 150 μM, pig microtubules
KIF18A, sequence (Q8NI77 whole entry): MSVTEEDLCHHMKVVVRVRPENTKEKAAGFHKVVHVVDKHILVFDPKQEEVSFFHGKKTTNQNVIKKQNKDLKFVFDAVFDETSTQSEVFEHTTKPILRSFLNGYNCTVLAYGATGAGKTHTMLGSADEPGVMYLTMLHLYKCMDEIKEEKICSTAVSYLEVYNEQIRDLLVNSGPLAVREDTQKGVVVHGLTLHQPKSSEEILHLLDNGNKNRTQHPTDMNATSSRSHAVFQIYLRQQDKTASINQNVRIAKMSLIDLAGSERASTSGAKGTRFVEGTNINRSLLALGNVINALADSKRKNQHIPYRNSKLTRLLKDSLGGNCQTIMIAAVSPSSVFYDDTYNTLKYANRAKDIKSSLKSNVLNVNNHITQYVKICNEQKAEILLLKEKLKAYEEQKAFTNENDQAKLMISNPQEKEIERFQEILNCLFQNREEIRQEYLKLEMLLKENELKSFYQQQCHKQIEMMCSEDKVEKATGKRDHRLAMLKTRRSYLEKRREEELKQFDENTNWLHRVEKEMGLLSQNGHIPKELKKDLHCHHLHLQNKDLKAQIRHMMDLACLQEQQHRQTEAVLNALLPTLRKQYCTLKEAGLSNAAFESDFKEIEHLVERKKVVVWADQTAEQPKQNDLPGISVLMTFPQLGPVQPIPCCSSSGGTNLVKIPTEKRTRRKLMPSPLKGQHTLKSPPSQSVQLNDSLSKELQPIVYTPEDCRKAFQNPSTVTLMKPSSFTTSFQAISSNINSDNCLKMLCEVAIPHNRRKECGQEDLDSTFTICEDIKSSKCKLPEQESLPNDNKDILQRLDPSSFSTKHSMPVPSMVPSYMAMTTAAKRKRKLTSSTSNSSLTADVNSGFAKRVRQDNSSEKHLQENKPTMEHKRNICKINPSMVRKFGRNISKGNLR
KIF18A, sequence (P02550 whole entry partner): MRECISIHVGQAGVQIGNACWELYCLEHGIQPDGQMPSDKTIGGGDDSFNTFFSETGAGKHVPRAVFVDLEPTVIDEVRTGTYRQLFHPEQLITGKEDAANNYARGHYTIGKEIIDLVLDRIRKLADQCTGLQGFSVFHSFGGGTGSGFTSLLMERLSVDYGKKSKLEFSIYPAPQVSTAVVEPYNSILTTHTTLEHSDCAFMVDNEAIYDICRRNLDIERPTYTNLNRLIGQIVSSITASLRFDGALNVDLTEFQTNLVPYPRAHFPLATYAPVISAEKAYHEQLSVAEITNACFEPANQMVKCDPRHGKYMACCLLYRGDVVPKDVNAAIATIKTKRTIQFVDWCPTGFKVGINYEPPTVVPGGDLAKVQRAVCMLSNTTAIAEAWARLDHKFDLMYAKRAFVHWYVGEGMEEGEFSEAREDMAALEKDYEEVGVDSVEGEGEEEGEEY
KIF18A, sequence (P02554 whole entry partner): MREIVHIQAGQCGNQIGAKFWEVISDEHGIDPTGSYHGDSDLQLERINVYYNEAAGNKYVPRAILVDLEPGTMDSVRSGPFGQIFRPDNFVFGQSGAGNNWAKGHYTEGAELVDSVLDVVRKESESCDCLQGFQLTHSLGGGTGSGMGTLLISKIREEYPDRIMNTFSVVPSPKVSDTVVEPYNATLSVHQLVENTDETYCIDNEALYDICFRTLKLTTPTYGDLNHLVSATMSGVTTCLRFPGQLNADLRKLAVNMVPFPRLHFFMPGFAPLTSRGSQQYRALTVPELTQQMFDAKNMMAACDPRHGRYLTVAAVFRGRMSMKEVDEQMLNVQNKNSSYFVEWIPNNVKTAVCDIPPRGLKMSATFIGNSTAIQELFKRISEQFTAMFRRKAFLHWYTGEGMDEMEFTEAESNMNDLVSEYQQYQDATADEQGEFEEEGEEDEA

PK study in ICR mice = type: in vivo, mouse; details: both sexes, mouse, plasma, route and dose not given; for AUC: read-out: AUC; for Cmax: read-out: Cmax
Summary of the method: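 Fasted ICR mice (3/group) dosed intravenously or by oral gavage; plasma sampled up to 24 h. Plasma levels measured by LC-MS/MS after protein precipitation. T½, AUC0-t, CL, Vss and F derived by noncompartmental analysis.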

Row | Compound | IC50 (A2780 cells) | IC50 (KIF18A) | AUC (PK study in ICR mice) | Cmax (PK study in ICR mice)
1 | CC1Cn2c(cc3c(NC(=O)c4ccc(NS(=O)(=O)CCO)cc4N4CCC5(CC4)CC5)cccc32)C(C)O1 (single isomer, unassigned) [Compound 312-P3, N-(1,3-dimethyl-3,4-dihydro-1H-[1,4]oxazino[4,3-a]indol-9-yl)-4-((2-hydroxyethyl)sulfonamido)-2-(6-azaspiro[2.5]oct-6-yl)benzamide] | > 10 µM | 0.05 to 0.5 µM | 32.5 µg·h/mL | 2.98 µg/mL
2 | CC1(C)Cn2c(cc3c(NC(=O)c4ccc(NS(=O)(=O)CCO)cc4N4CCC5(CC4)CC5)ccc(C#N)c32)CO1 [Compound 392, N-(6-cyano-3,3-dimethyl-3,4-dihydro-1H-[1,4]oxazino[4,3-a]indol-9-yl)-4-((2-hydroxyethyl)sulfonamido)-2-(6-azaspiro[2.5]oct-6-yl)benzamide] | 6.1 µM | ≤ 0.05 µM | 50.8 µg·h/mL | 5.08 µg/mL
3 | CC1(C)Cn2c(nc3c(NC(=O)c4ccc(NS(=O)(=O)CCO)cc4N4CCC5(CC4)CC5)cccc32)CO1 [Compound 391, N-(3,3-dimethyl-3,4-dihydro-1H-benzo[4,5]imidazo[2,1-c][1,4]oxazin-9-yl)-4-((2-hydroxyethyl)sulfonamido)-2-(6-azaspiro[2.5]octan-6-yl)benzamide] | > 10 µM | 0.05 to 0.5 µM | 38 µg·h/mL | 4.37 µg/mL
4 | CC1(C)Cn2c(cc3c(NC(=O)c4ccc(NS(=O)(=O)CCO)cc4N4CCC5(CC4)CC5)cccc32)CO1 [Example 371, N-(3,3-dimethyl-3,4-dihydro-1H-[1,4]oxazino[4,3-a]indol-9-yl)-4-(2-hydroxyethylsulfonamido)-2-(6-azaspiro[2.5]octan-6-yl)benzamide] | > 10 µM | ≤ 0.05 µM | 51.2 µg·h/mL | 3.75 µg/mL
5 | CC1(C)Cn2c(cc3c(NC(=O)c4ccc(NS(=O)(=O)CCO)cc4N4CCC(=C(F)F)CC4)cccc32)CO1 [Example 370, 2-(4-(difluoromethylene)piperidin-1-yl)-N-(3,3-dimethyl-3,4-dihydro-1H-[1,4]oxazino[4,3-a]indol-9-yl)-4-((2-hydroxyethyl)sulfonamido)benzamide] | > 10 µM | 0.05 to 0.5 µM | 52.4 µg·h/mL | 3.58 µg/mL

Reference: patent US20260070887A1 (Shenzhen Zhongge Biological Technology Co., Ltd., priority 2022, published 2026)
